This is an account of results in ChEMBL document CHEMBL1955771, “VX-322: a novel dual receptor tyrosine kinase inhibitor for the treatment of acute myelogenous leukemia” (J Med Chem, 2012).

In the test the target is T1, Receptor-type tyrosine-protein kinase FLT3 (Homo sapiens, UniProt P36888).
T1 sequence (P36888 whole entry): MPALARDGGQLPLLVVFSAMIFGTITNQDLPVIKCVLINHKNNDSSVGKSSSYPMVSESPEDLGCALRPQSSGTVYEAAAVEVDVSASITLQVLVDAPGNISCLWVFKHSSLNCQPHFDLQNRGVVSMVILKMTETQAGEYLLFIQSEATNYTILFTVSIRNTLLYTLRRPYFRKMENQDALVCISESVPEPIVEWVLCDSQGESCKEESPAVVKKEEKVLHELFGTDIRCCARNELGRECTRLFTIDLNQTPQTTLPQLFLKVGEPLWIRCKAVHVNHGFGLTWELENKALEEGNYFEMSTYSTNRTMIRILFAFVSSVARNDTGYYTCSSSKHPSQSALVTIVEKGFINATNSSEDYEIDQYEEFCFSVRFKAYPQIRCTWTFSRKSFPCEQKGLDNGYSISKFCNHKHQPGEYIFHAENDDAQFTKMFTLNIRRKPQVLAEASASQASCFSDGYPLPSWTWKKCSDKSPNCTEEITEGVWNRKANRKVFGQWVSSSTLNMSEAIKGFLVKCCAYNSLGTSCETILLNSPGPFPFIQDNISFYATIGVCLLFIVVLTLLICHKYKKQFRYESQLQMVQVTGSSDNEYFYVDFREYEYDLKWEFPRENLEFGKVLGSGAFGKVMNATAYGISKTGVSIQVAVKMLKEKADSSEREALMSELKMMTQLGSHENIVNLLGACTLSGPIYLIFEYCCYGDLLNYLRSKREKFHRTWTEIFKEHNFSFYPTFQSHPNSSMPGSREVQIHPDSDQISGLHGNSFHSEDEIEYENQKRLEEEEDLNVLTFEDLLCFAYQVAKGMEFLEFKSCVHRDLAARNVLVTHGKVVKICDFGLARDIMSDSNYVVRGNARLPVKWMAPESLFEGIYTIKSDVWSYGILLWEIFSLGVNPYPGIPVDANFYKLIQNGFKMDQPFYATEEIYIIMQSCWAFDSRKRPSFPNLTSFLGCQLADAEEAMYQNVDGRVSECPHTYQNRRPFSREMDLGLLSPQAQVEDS
Description: Inhibition of human recombinant FLT3 by radiometric assay.

As a reminder, the Ki is a dissociation constant, usually derived from enzyme kinetics or from competition with a known ligand. Consider `Nc1nc(Nc2ccc([C@H]3CC[C@H](N4CCOCC4)CC3)cc2)nn1-c1ccccn1`, for which the inhibitory constant (Ki) was 0.17 nM.
